Source: patent publication US8945397B2, “Methods of inhibiting cyanobacteria growth by administering gramine derivatives” (priority 2012, dated 2015)

What was measured:
M. Aeruginosa [1] = experiment: Liquid culture optical absorption assay (OD600) of M. aeruginosa growth, 15 days; format: cell-based, Microcystis aeruginosa; details: for OD600 Measured at Day 15 (Starting OD600 at Day 0 is 0.100): 0.5 mg/L compound, liquid culture, control 2.83; for Inhibition of M. aeruginosa growth in words (liquid culture): 0.5 mg/L, Table 2 and FIG. 3
Procedure: To quantitatively measure M. Aeruginosa cell growth in responding to various gamine compounds, cell densities were determined by an optical absorption assay as measured by a spectrophotometer (Nanodrop 2000, Thermo Scientific). In the optical absorption assay, the absorbance of radiation (light) is measured as a function of frequency (wavelength). For this optical absorption assay, the algal cell density was determined at 600 nm wavelength. Equal amount of starting cells (optical density at wavelength 600 nm, OD600, was at 0.100 on Day 0) were placed in freshwater culture for 15 days of growth. After 15 days, the algae cell suspension is pipetted into a cuvette and placed within the spectrophotometer for the optical absorption assay.
There is a clear and distinct decrease in M. Aeruginosa algae growth when administered with 5,6-dichlogramine (Compound No. 9) and with 5,6,7-trichlorogramine (Compound No. 12) compared to M. Aeruginosa algae growth in control samples.

M. Aeruginosa [2] = details: according to the Hong articles; cited from earlier work
[3] = test system: M. aeruginosa cyanobacterium; details: U.S. Pat. No. 7,612,049; cited from earlier work

In the case of `CN(C)Cc1c[nH]c2ccc(Cl)cc12` [Compound No. 1, 5-chlorogramine], the “OD600 Measured at Day 15 (Starting OD600 at Day 0 is 0.100)” value (“OD600 Measured” for short) (M. Aeruginosa [1]) is reported as 1.89 and the “Inhibition of M. aeruginosa growth in words (liquid culture)” value (“Inhibition of M. aeruginosa growth” for short) (M. Aeruginosa [1]) is reported as “some inhibitory effects”.

For `CN(C)Cc1c[nH]c2ccccc12` [N,N-dimethyl-3-amino-methylindole], the “concentration needed to inhibit the growth of M. aeruginosa” value (M. Aeruginosa [2]) is given as “at least 8 mg/L”.

For `CN(C)Cc1c[nH]c2ccc(Br)cc12` [compound 2, 5-bromogramine], the “OD600 Measured” value (M. Aeruginosa [1]) was 1.95 and the “Inhibition of M. aeruginosa growth” value (M. Aeruginosa [1]) was “some inhibitory effects”.

In the case of `COc1ccc2[nH]cc(CN(C)C)c2c1` [compound 3, 5-methoxygramine], the “OD600 Measured” value (M. Aeruginosa [1]) is reported as 2.45.

For `Cc1cccc2[nH]cc(CN(C)C)c12` [compound 4, 4-methylgramine], the “OD600 Measured” value (M. Aeruginosa [1]) was 2.49.

For `CN(C)Cc1c[nH]c2ccc(C#N)cc12` [compound 5, 5-cyanogramine], the “OD600 Measured” value (M. Aeruginosa [1]) was 2.32.

For `CN(C)Cc1c[nH]c2cc(OCc3ccccc3)ccc12` [compound 7, 6-benzyloxygramine], the “OD600 Measured” value (M. Aeruginosa [1]) was 2.12 and the “Inhibition of M. aeruginosa growth” value (M. Aeruginosa [1]) was “some inhibitory effects”.

In the case of `CN(C)Cc1c[nH]c2cccc(OCc3ccccc3)c12` [compound 8, 4-benzyloxygramine], the “OD600 Measured” value (M. Aeruginosa [1]) is reported as 2.54.

For `COc1cccc2[nH]cc(CN(C)C)c12` [compound 10, 4-methoxygramine], the “OD600 Measured” value (M. Aeruginosa [1]) was 2.66.

For `CN(C)Cc1c[nH]c2cccc(C#N)c12` [compound 11, 4-cyanogramine], the “OD600 Measured” value (M. Aeruginosa [1]) was 2.50.

In the case of `N[C@H]1C(O)O[C@H](CO)[C@@H](O)[C@@H]1O` (some centres unmarked) [glucosamine], the “concentration to inhibit the growth of M. aeruginosa” value [3] is given as 10-50 ppm.
